Measurements published in ChEMBL document CHEMBL1125012, “Inhibition of enzymes of estrogen and androgen biosynthesis by esters of 4-pyridylacetic acid” (J Med Chem, 1990).
“And” between values parts separate entries of the source, which are not always exact repeats. Identical values can stand only once.

The compounds below were run against T1, Steroid 17-alpha-hydroxylase/17,20 lyase (Rattus norvegicus, UniProt P11715).
T1 sequence (P11715 whole entry): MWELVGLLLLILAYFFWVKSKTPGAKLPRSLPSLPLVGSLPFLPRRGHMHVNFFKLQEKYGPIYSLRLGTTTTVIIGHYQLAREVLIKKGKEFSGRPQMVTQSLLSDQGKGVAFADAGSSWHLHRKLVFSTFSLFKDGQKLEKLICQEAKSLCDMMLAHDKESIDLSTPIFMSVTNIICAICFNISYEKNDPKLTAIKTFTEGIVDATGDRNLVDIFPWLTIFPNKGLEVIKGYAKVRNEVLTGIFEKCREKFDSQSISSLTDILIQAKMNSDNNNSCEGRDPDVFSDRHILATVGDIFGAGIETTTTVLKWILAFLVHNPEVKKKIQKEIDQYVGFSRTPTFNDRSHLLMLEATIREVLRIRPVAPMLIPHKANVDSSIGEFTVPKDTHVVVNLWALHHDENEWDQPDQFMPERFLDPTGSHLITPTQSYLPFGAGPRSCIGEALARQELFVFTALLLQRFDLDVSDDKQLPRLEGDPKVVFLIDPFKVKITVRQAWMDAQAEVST

| SMILES | IC50 |
| --- | --- |
| CC1(C)C2CCC1(C)C(OC(=O)Cc1ccncc1)C2 (single isomer, unassigned; (-)) | 2.2 µM and 1.5 µM |
| CC1CCC(OC(=O)Cc2ccncc2)C1 (stereo unspecified) | 32 µM and 28 µM |
| CC1CCC(OC(=O)Cc2ccncc2)CC1 (stereo in doubt; 6) | 36 µM and 25 µM |
| CC(C)CCOC(=O)Cc1ccncc1 | > 100 µM |
| CC(C)CC(C)OC(=O)Cc1ccncc1 (stereo unspecified) | 17 µM and 13 µM |
| CC1C(OC(=O)Cc2ccncc2)CC2CC1C2(C)C (stereo in doubt; 18) | 0.28 µM and 0.26 µM |
| O=C(Cc1ccncc1)OC1=CC2CCC1C2 (stereo in doubt; 15) | 46 µM and 45 µM |
| CC(C)OC(=O)Cc1ccncc1 | > 100 µM |
| CC1C(OC(=O)Cc2ccncc2)CC2CC1C2(C)C (stereo in doubt; 19) | 1.8 µM and 1.7 µM |
| CC1CCC(C(C)C)C(OC(=O)Cc2ccncc2)C1 (stereo in doubt; 12) | 5.1 µM and 4.5 µM |
| CC(C)(C)C1CCC(OC(=O)Cc2ccncc2)CC1 (stereo unspecified) | 3 µM and 2.1 µM |
| O=C(Cc1ccncc1)Oc1ccccc1 | > 100 µM |
| O=C(Cc1ccncc1)OC1CCCC1 | 131 µM and 77 µM |
| O=C(Cc1ccncc1)OC12CC3CC(CC(C3)C1)C2 | 0.61 µM and 0.56 µM |
| CCC1CCC(OC(=O)Cc2ccncc2)CC1 (stereo unspecified) | 2.7 µM and 2 µM |
| CC1(C)C2CCC1(C)C(OC(=O)Cc1ccncc1)C2 (stereo in doubt; 17) | 0.54 µM and 0.59 µM |
| CC1CCC(C(C)C)C(OC(=O)Cc2ccncc2)C1 (stereo in doubt; 13) | 15 µM and 12 µM |
| CC(C)(C(=O)OC1CCCCC1)c1ccncc1 | 4.5 µM and 3.6 µM |
| CC1CCC(OC(=O)Cc2ccncc2)CC1 (trans isomer) | 4.4 µM and 4.2 µM |
| CC1(OC(=O)Cc2ccncc2)CCCCC1 | 11 µM and 10 µM |
| O=C(Cc1ccncc1)OC1=CC2CCC1C2 (stereo in doubt; 14) | 41 µM and 31 µM |
